From paper PMC6478823, “A suite of phenotypic assays to ensure pipeline diversity when prioritizing drug-like Cryptosporidium growth inhibitors” (Nature Communications, 2019)

How the values were obtained:
[1] = system: C. parvum DMC1 expression; test: Sexual differentiation assay (DMC1 expression); format: cell-based, Cryptosporidium parvum; settings: compound at asexual EC90, 48-72 h; for Asexual to sexual differentiation: Mean % DMC1 inhibition (normalized to host nuclei), Average: average of replicates; for Asexual to sexual differentiation: Mean % DMC1 inhibition (normalized to host nuclei), Replicate 1a: single replicate 1; for Asexual to sexual differentiation: Mean % DMC1 inhibition (normalized to host nuclei), Replicate 2a: single replicate 2; for Asexual to sexual differentiation: Mean % DMC1 inhibition (normalized to host nuclei), Replicate 3a: single replicate 3
In short: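 High-content microscopy of infected cells fixed at set times post-infection, stained with anti-DMC1 mAb 1H10G7, Vicia villosa lectin and Hoechst; lectin-positive parasites counted, then DMC1-positive.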

C. parvum = test: DNA replication assay (EdU incorporation); format: cell-based, Cryptosporidium parvum; settings: compound at EC90; for DNA Synthesis Assay: Mean % Inhibition of EdU-labeling (normalized to parasite numbers), Average: average of replicates; for DNA Synthesis Assay: Mean % Inhibition of EdU-labeling (normalized to parasite numbers), Replicate 1: single replicate 1; for DNA Synthesis Assay: Mean % Inhibition of EdU-labeling (normalized to parasite numbers), Replicate 2: single replicate 2; for DNA Synthesis Assay: Mean % Inhibition of EdU-labeling (normalized to parasite numbers), Replicate 3: single replicate 3

| SMILES | Asexual to sexual differentiation: Mean % DMC1 inhibition (normalized to host nuclei), Average [1] | Asexual to sexual differentiation: Mean % DMC1 inhibition (normalized to host nuclei), Replicate 1a [1] | Asexual to sexual differentiation: Mean % DMC1 inhibition (normalized to host nuclei), Replicate 2a [1] | DNA Synthesis Assay: Mean % Inhibition of EdU-labeling (normalized to parasite numbers), Average (C. parvum) | DNA Synthesis Assay: Mean % Inhibition of EdU-labeling (normalized to parasite numbers), Replicate 1 (C. parvum) | DNA Synthesis Assay: Mean % Inhibition of EdU-labeling (normalized to parasite numbers), Replicate 2 (C. parvum) | DNA Synthesis Assay: Mean % Inhibition of EdU-labeling (normalized to parasite numbers), Replicate 3 (C. parvum) | DNA Synthesis Assay: Mean % Inhibition of EdU-labeling (normalized to parasite numbers), Replicate 4 (C. parvum; single replicate 4) | DNA Synthesis Assay: Mean % Inhibition of EdU-labeling (normalized to parasite numbers), Replicate 5 (C. parvum; single replicate 5) | Asexual to sexual differentiation: Mean % DMC1 inhibition (normalized to host nuclei), Replicate 3a [1] | Asexual to sexual differentiation: Mean % DMC1 inhibition (normalized to host nuclei), Replicate 4a ([1]; single replicate 4) | Asexual to sexual differentiation: Mean % DMC1 inhibition (normalized to host nuclei), Replicate 5a ([1]; single replicate 5) | effect on C. parvum DNA replication / EdU incorporation (C. parvum; result in words) | DNA synthesis (mean % inhibition) (C. parvum; EdU added 9 h post-infection for 2 h) | DNA synthesis (C. parvum; yes/no grouping by phenotypic assay result) |
| --- | --- | --- | --- | --- | --- | --- | --- | --- | --- | --- | --- | --- | --- | --- | --- |
| CSc1ccccc1C(=O)Nc1nc(-c2ccccn2)cs1 [MMV001246] | 45.66% | 48.08% | 43.24% | 72.11% | 57.69% | 70.62% | 88.02% | – | – | – | – | – | – | – | – |
| O=C(Nc1nc(-c2ccccn2)cs1)c1ccccc1Br [MMV665909] | 53.05% | 56.13% | 49.96% | 90.80% | 100.00% | 100.00% | 80.23% | 80.99% | 92.80% | – | – | – | – | – | – |
| Cc1cn(-c2cc(NC(=O)c3ccc(C)c(Nc4nccc(-c5cccnc5)n4)c3)cc(C(F)(F)F)c2)cn1 [Nilotinib] | 70.96% | 66.12% | 75.79% | 22.05% | 29.68% | 14.41% | – | – | – | – | – | – | – | – | – |
| CC(=O)Oc1ccccc1C(=O)Nc1ncc([N+](=O)[O-])s1 [Nitazoxanide] | 81.79% | 79.14% | 81.57% | -9.16% | -33.81% | 15.50% | – | – | – | 59.72% | 95.07% | 93.41% | – | – | – |
| CC(=NOCCN)c1cccc(C(C)(C)NC(=O)Nc2ccc(Cl)c(C(F)(F)F)c2)c1 [P257] | 70.52% | 67.08% | 73.96% | 97.76% | 97.49% | 98.03% | – | – | – | – | – | – | – | – | – |
| NC[C@@H]1O[C@H](O[C@H]2[C@@H](O)[C@H](O[C@@H]3[C@@H](O)[C@H](N)C[C@H](N)[C@H]3O[C@H]3O[C@H](CO)[C@@H](O)[C@H](O)[C@H]3N)O[C@@H]2CO)[C@H](N)[C@@H](O)[C@@H]1O [Paromomycin] | 43.80% | 58.59% | 65.91% | 18.81% | -11.54% | 39.99% | 27.99% | – | – | 6.88% | – | – | no effect on EdU incorporation | – | – |
| Cc1cc(/C=C/c2ccc3cc(N(C)C)ccc3[n+]2C)c(C)n1-c1ccccc1 [Pyrvinium pamoate] | 68.07% | 51.94% | 84.21% | – | 94.57% | 70.33% | – | – | – | – | – | – | – | 88.30% | – |
| [H]/N=C(/NCCCCC)N/N=C/c1c[nH]c2ccc(OC)cc12 [Tegaserod] | 12.05% | 41.94% | -17.83% | -6.72% | -11.69% | -25.63% | 17.15% | – | – | – | – | – | – | – | no |
